# Experimental data published in patent US8268863B2 (priority 2007, dated 2012).
# Assays:
# human mu opioid receptor [1] = biological target: T1, human mu opioid receptor (Homo sapiens, UniProt P35372); assay: Human mu GTP-Eu nucleotide exchange assay (agonist mediated activation); type: biochemical; details: bound GTP-Eu relative to DAMGO (IA=100), CHO-K1 membranes expressing human mu opioid receptor; read-out: intrinsic activity (IA)
# T1 construct: host or cells: CHO-K1
# human mu opioid receptor [2] = biological target: T1, human mu opioid receptor; assay: Radioligand binding assay, human mu opioid receptor; details: [3H]-Diprenorphine displacement, membranes of CHO-K1 cells; read-out: pKi at the human mu opioid receptor (converted)
# T1 sequence (P35372 whole entry): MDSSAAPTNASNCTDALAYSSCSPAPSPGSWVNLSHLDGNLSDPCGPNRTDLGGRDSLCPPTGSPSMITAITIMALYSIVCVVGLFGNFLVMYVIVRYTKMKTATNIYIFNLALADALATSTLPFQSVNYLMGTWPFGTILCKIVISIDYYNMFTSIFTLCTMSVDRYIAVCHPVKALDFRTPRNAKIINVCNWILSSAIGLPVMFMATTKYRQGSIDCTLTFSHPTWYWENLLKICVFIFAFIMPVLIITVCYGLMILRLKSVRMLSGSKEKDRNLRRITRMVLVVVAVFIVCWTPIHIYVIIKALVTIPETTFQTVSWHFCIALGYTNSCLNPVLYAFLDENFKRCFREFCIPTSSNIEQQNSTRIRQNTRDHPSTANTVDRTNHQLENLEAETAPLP
SMILES,Emax (human mu opioid receptor [1]),Ki (human mu opioid receptor [2])
"CC(C)C[C@H](NC(=O)C(Cc1ccccc1)CN1[C@@H]2CC[C@H]1C[C@@H](c1cccc(C(N)=O)c1)C2)C(N)=O (mixture of isomers) [Example 6, 3-endo-{8-[(S)-2-(S)-1-carbamoyl-3-methyl-butylcarbamoyl)-3-phenylpropyl]-8-azabicyclo[3.2.1]oct-3-yl}benzamide and 3-endo-{8-[(R)-2-((S)-1-carbamoyl-3-methylbutylcarbamoyl)-3-phenyl-propyl]-8-azabicyclo[3.2.1]oct-3-yl}benzamide]",-7%,0.0631 nM
"O=C(NC(CC1CCCCC1)CN1[C@@H]2CC[C@H]1C[C@@H](c1cccc(O)c1)C2)C1CCCCC1 (stereo partly drawn) [Example 1, cyclohexanecarboxylic acid {1-cyclohexylmethyl-2-[3-endo-(3-hydroxyphenyl)-8-azabicyclo[3.2.1]oct-8-yl]-ethyl}amide]",-9%,0.0631 nM
"O=C(CO)NC(CC1CCCCC1)CN1[C@@H]2CC[C@H]1C[C@@H](c1cccc(O)c1)C2 (stereo partly drawn) [Example 2, N-{1-cyclohexylmethyl-2-[3-endo-(3-hydroxy-phenyl)-8-azabicyclo[3.2.1]oct-8-yl]ethyl}-2-hydroxyacetamide]",24%,0.0631 nM
"NC(=O)CCC(=O)NC(CC1CCCCC1)CN1[C@@H]2CC[C@H]1C[C@@H](c1cccc(O)c1)C2 (stereo partly drawn) [Example 3, N-{1-cyclohexylmethyl-2-[3-endo-(3-hydroxy-phenyl)-8-azabicyclo[3.2.1]oct-8-yl]ethyl}succinamide]",3%,0.126 nM
"O=C(NCC1CCCCC1)NC(CC1CCCCC1)CN1[C@@H]2CC[C@H]1C[C@@H](c1cccc(O)c1)C2 (stereo partly drawn) [Example 4, 1-cyclohexylmethyl-3-{1-cyclohexylmethyl-2-[3-endo-(3-hydroxyphenyl)-8-azabicyclo[3.2.1]oct-8-yl]ethyl}urea]",-3%,0.1 nM
"Cc1ccc(S(=O)(=O)NC(CC2CCCCC2)CN2[C@@H]3CC[C@H]2C[C@@H](c2cccc(O)c2)C3)cc1 (stereo partly drawn) [Example 5, N-{1-cyclohexylmethyl-2-[3-endo-(3-hydroxy-phenyl)-8-azabicyclo[3.2.1]oct-8-yl]ethyl}-4-methyl-benzenesulfonamide]",2%,0.794 nM
O=C(NC(CCc1ccccc1)CN1[C@@H]2CC[C@H]1C[C@@H](c1cccc(O)c1)C2)c1ccccc1 (some centres unmarked) [Example 76],≥ 30%,
CS(=O)(=O)NC(CCN1[C@@H]2CC[C@H]1C[C@@H](c1cccc(C(N)=O)c1)C2)c1ccccc1 (some centres unmarked) [Example 104],≥ 30%,
